The numbers were not newly measured in US9358298B2, “17-hydroxyprogesterone ester containing oral compositions and related methods” (Lipocine Inc., priority 2011, dated 2016), which cites them from elsewhere.

For data set [1] the following is noted: given by mouth; Saxton et al. 2004, Greene NEJM.

With `CCCCCC(=O)O[C@]1(C(C)=O)CC[C@H]2[C@@H]3CCC4=CC(=O)CC[C@]4(C)[C@H]3CC[C@@]21C` [17-hydroxyprogesterone caproate, 17-alpha-hydroxyprogesterone caproate], the solubility in water is below 0.02 µg/mL. Moreover, in data set [1], the oral activity result is “no oral activity”.
